Literature values in US20110052625A1, “COMPOSITIONS AND METHODS FOR TREATING DIABETES USING LISOFYLLINE ANALOGS AND ISLET NEOGENESIS ASSOCIATED PEPTIDE” (DIAKINE THERAPEUTICS, INC., priority 2008, published 2011).
Ends that are not written are not given here.

Tested on: overt diabetic NOD (Non-Obese Diabetic) mice
Settings: given alone; cited from earlier work

For “GLP-1: "a 300-amino-acid (peptide) incretin synthesized in the small and large intestine by the L-type cells" (HAEGTFTSDVSSYLEGQAAKEFIAWLVKGR; ends and bridges not checked; UniProt P01275 98-127, looked up)”, which effect on hyperglycemia is on record?
Its effect on hyperglycemia is “no effect”.
